Data as given in patent publication US9539223B2, “Methods for treating bacterial infections” (Neoculi Pty Ltd., priority 2013, dated 2017).
In brackets after ≈: the same amount, converted by molar mass. Several values for one entry are separate records, joined by “and”; a condition that tells them apart may be missing. Equal entries are not always repeated.

Columns and labels:
S. pneumoniae [1] = assay: MIC by micro-broth dilution, pneumococcal isolates; assay type: cell-based, Streptococcus pneumoniae
Method: (§1) [Micro-broth dilutions and 96-well trays are prepared by the following method: 90 μL of 4% LHB: CAMHB is aliquotted into all wells using a multichannel pipette. 90 μl of working antimicrobial stocks were no serial diluted down the tray by a 1:2 dilution. Negative broth controls and dilution control were taken into account when planning the set up of a 96-well tray.] 10 μL of bacterial suspension was then added to the appropriate wells in the 96 well tray. Appropriate positive (no antimicrobial), negative (no antimicrobial or bacteria) and negative dilution (a serial dilution control of antimicrobial and broth) controls were included in each assay. […] The MBC was determined by a 99.95% inhibition of S. pneumoniae, taking into account the dilution factor. MICs and MBCs were determined in quadruplicate and the mode was taken as the representative value. The MIC50, MIC90 and MIC range and MBC50, MBC90 and MBC range were determined according to CLSI standards. The MIC50 and MIC90, or MBC50 and MBC90, are defined by the lowest concentrations which, when all the MICs and MBCs of the isolates are arranged from lowest to highest, inhibited the 50th and 90th percentile of the total amount of isolates, respectively.

[2] = test system: methicillin-resistant and methicillin-susceptible Staphylococcus aureus; assay: MIC by broth microdilution (CLSI), S. aureus clinical isolates; assay type: cell-based; details: positive control
Method: Microtiter plates containing two-fold dilutions of each antimicrobial agent were inoculated with ˜10^5-CFU/ml of each isolate in a 100-μl final volume. Plates were incubated for 24-h at 37° C. Turbidity (absorbance at OD600) was measured using a Bio-Rad Benchmark Plus microplate spectrophotometer in Microplate Manager® version 5.2.1 (Bio-Rad). Minimum inhibitory concentration (MIC) endpoints were defined as the lowest antimicrobial concentration assessed by the spectrophotometer that inhibited bacterial growth. ATCC 49775 was included in the isolate collection as a control organism using breakpoints defined by the CLSI. The MIC50, MIC90 (concentrations that inhibited growth of the lower 50% and 90% of total organisms, respectively), and MIC range (minimum and maximum) were calculated to profile the antimicrobial susceptibility of the isolate collection.

S. aureus strain T3-29 = assay: Checkerboard synergy study, S. aureus T3-29; assay type: cell-based, Staphylococcus aureus
Method: (§2) Firstly, the MIC of each antibiotic alone was determined in accordance to CLSI standard guidelines.
(§3) According to the checkerboard guidelines, Synergy (S) was defined as an FICI<0.5. No effect (NE) was defined as 0.5<FICI<4. Antagonism (A) was defined as a 4<FICI.

S. pneumoniae [3] = assay: MBC, pneumococcal isolates; assay type: cell-based, Streptococcus pneumoniae; details: isolate WCH16
Method: as §1

[4] = test system: methicillin-resistant Staphylococcus aureus (MRSA); assay: Minimum inhibitory concentration assay (CLSI), MRSA isolates; assay type: cell-based; details: ATCC control strains
Method: Minimum inhibitory concentration tests were performed according to CLSI Standards (CLSI 2008). […] The solutions were then serially diluted across the row, leaving 2 columns for positive and negative controls. A bacterial suspension was prepared by adding fresh colonies obtained from an overnight culture on Sheep Blood Agar (SBA) to a 9.1 g/L saline solution. This suspension was adjusted to a concentration of between 4×10^8 and 5×10^8 CFU/mL. Concentration of the suspension was determined by measuring optical density (OD) using a spectrophotometer at a wavelength of 600 nm where the correct concentration was determined to have an optical density of between 1.00 and 1.20. One milliliter of this suspension was added to 9 mL of saline before being added to all wells, excluding the negative control wells, in 10 μL volumes giving a final concentration of between 4×10^5 and 5×10^5 CFU/mL in each well. The tests were then incubated for 24 hours at 37° C. and then assessed both visually and using OD readings from a microplate reader at a wavelength of 600 nm. These tests were performed in duplicate but repeated if discrepancies were observed.
The minimum inhibitory concentration (MIC) was determined to be the lowest concentration of antibiotic that prevented growth of bacteria both visually and using OD readings.

[5] = test system: Staphylococcus spp. Strain MK1; assay: Checkerboard synergy study, Staphylococcus spp. MK1; assay type: cell-based; set-up: key to FIC1 (last-but-one column; FIC index of antibiotic + NCL812): FICI: <0.5 synergy, 0.5-4 no effect, >4 antagonism; details: Staphylococcus spp. Strain MK1
Method: as §2, §3

S. aureus ATCC 29213 [6] = assay: MIC assay (CLSI M07-A8) in Mueller Hinton II Broth; assay type: cell-based, Staphylococcus aureus; details: S. aureus ATCC 29213, quality control agent
Description: The MIC assay method followed the procedure described by the Clinical and Laboratory Standards Institute, or CLSI (Clinical and Laboratory Standards Institute). […] The medium employed for the MIC assay was Mueller Hinton II Broth (MHB II—Becton Dickinson, Sparks, Md.; Cat No 212322; Lot 9044411). S. aureus ATCC 29213 served as the quality control strain, and linezolid was utilized as the quality control antibiotic to validate the assay.

S. aureus ATCC 29213 [7] = assay: ATP release assay (CellTiter-Glo); assay type: cell-based, Staphylococcus aureus; details: 8-fold the MIC (256 μg/ml), 30 min exposure
Description: The CellTiter-Glo Luminescent Cell Viability Assay (Promega) was utilized to measure the leakage of ATP from bacteria. […] The negative control received 2% DMSO, which represented the final DMSO concentration in each assay. […] Results were expressed as ATP concentration released to the medium (μM).

CC1(C)S[C@@H]2[C@H](NC(=O)[C@H](N)c3ccccc3)C(=O)N2[C@H]1C(=O)O [Ampicillin]
MIC Range (S. pneumoniae [1]; 20 S. pneumoniae strains): 0.011 to 0.09 µg/mL
MIC (S. pneumoniae [1]; Streptococcus pneumoniae): 0.023 µg/mL (≈ 0.0658 µM)
MIC50 (S. pneumoniae [1]; Streptococcus pneumoniae): 0.023 µg/mL (≈ 0.0658 µM)
MIC90 (S. pneumoniae [1]; Streptococcus pneumoniae): 0.023 µg/mL (≈ 0.0658 µM)
MIC (S. pneumoniae [1]; isolate EF3030): 0.023
MIC (S. pneumoniae [1]; isolate WCH184): 0.045
MIC values against CLSI guidelines [2]: within the normal range expected
Result (interaction of antibiotic with NCL812) (S. aureus strain T3-29): NE (No effect (NE) was defined as 0.5<FICI<4)
MBC (S. pneumoniae [3]): Autolysis
MIC values against CLSI recommendations [4]: within the normal range expected

O=C(N[C@H](CO)[C@H](O)c1ccc([N+](=O)[O-])cc1)C(Cl)Cl [Chloramphenicol, chloramphenicol]
FIC1 (last-but-one column; FIC index of antibiotic + NCL812) (S. aureus strain T3-29): 0.75
Result (interaction of antibiotic with NCL812) (S. aureus strain T3-29): NE (No effect (NE) was defined as 0.5<FICI<4)

O=C(O)c1cn(C2CC2)c2cc(N3CCNCC3)c(F)cc2c1=O [Ciprofloxacin, ciprofloxacin]
Antibiotic MIC Alone [5]: 0.125 µg/mL and 0.25 µg/mL
FIC1 (last-but-one column; FIC index of antibiotic + NCL812) [5]: 0.75 and 0.525 and 0.625 and 0.562
Result (interaction of antibiotic with NCL812) [5]: NE (No effect (NE) was defined as 0.5<FICI<4)

CC[C@H]1OC(=O)[C@H](C)[C@@H](O[C@H]2C[C@@](C)(OC)[C@@H](O)[C@H](C)O2)[C@H](C)[C@@H](O[C@@H]2O[C@H](C)C[C@H](N(C)C)[C@H]2O)[C@](C)(O)C[C@@H](C)C(=O)[C@H](C)[C@@H](O)[C@]1(C)O [Erythromycin, erythromycin]
MIC (S. pneumoniae [1]; Streptococcus pneumoniae): 0.00275 µg/mL (≈ 0.00375 µM)
Result (interaction of antibiotic with NCL812) (S. aureus strain T3-29): NE (No effect (NE) was defined as 0.5<FICI<4)

CC(=O)NC[C@H]1CN(c2ccc(N3CCOCC3)c(F)c2)C(=O)O1 [Linezolid, linezolid]
MIC against CLSI quality control range (S. aureus ATCC 29213 [6]): within the CLSI-established quality control range

CC1(C)S[C@@H]2[C@H](NC(=O)Cc3ccccc3)C(=O)N2[C@H]1C(=O)O [Penicillin G, penicillin G]
Antibiotic MIC Alone [5]: 0.125 µg/mL and 0.25 µg/mL
Antibiotic MIC With NCL812 [5]: 0.062 µg/mL and 0.031 µg/mL
FIC1 (last-but-one column; FIC index of antibiotic + NCL812) [5]: 1 and 0.625
Result (interaction of antibiotic with NCL812) [5]: NE (No effect (NE) was defined as 0.5<FICI<4)

Cc1cc(NS(=O)(=O)c2ccc(N)cc2)no1 [Sulfamethoxazole, sulfamethoxazole]
Antibiotic MIC Alone [5]: 8 µg/mL
Antibiotic MIC With NCL812 [5]: 4 µg/mL
FIC1 (last-but-one column; FIC index of antibiotic + NCL812) [5]: 0.75 and 1
FIC1 = MIC of antibiotic in combination with NCL812/MIC of antibiotic alone [5]: 0.5
Result (interaction of antibiotic with NCL812) [5]: NE (No effect (NE) was defined as 0.5<FICI<4)

CN(C)[C@@H]1C(O)=C(C(N)=O)C(=O)[C@@]2(O)C(O)=C3C(=O)c4c(O)cccc4[C@@](C)(O)[C@H]3C[C@@H]12 [Tetracycline, tetracycline]
FIC1 (last-but-one column; FIC index of antibiotic + NCL812) (S. aureus strain T3-29): 0.75 and 0.62
Result (interaction of antibiotic with NCL812) (S. aureus strain T3-29): NE (No effect (NE) was defined as 0.5<FICI<4)

gentamicin
Antibiotic MIC Alone [5]: 1 µg/mL and 0.5 µg/mL
Result (interaction of antibiotic with NCL812) [5]: NE (No effect (NE) was defined as 0.5<FICI<4)

polymyxin B [reference compound]
maximal release of ATP (S. aureus ATCC 29213 [7]): approximately 0.34 μM
